Results on one compound are retold here after article PMC8155176, “Reversible modulation of circadian time with chronophotopharmacology” (Nature Communications, 2021).

The subject of this assay is SCN explants. Description: Ex vivo circadian period, SCN explants of Per2::Luc knock-in mice. More on the design: species or system mouse. Particulars: 18 µM. The procedure:
Next, we applied the light-dependent period control to the tissue level using explants of Per2::Luc knock-in reporter mice. The mice express PER2-luciferase fusion protein under control of the endogenous Per2 promoter. […] The spleen explants were treated with thermally adapted trans-9, then irradiated with green light (λmax = 530 nm) or kept in dark, and luminescence rhythms were measured (Fig. 6a, b). […] In addition to the peripheral clock in spleen, we investigated the effect of compound 9 on the central clock in the hypothalamic suprachiasmatic nucleus (SCN) that controls behavioral rhythms. […]
Fig. 6 Ex vivo photo-modulation of the circadian period in mouse tissue explants. a–c The spleen explants of the Per2::Luc knock-in reporter mice were applied with 12 µM compound 9 and irradiated with green light (λmax = 530 nm) for 0 min (dark, black) or 30 min (green). Luminescence rhythms were then monitored and shown in a (mean of n = 5 for dark and n = 6 for green light). […] Luminescence is given in arbitrary units. n = 5 biologically independent samples for dark and n = 6 for green light. […] Luminescence rhythms of a representative sample for each condition are shown in d. […]
To harvest the suprachiasmatic nucleus (SCN), Per2::Luc heterozygote neonatal mice at postnatal day four to seven were euthanized. […] Circadian period was calculated by a cosine curve fitting. […]

Consider `CC(C)n1cnc2c(NCc3ccc(F)c(/N=N/c4c(F)cccc4F)c3F)ncnc21` [Compound 9], for which the “period effect of thermally adapted compound” value (applied on day 4) is recorded as “induced period lengthening”. In addition, the “period effect upon green light irradiation” value (green light on day 8) was “reduced”.
